Entries after “also recorded” stand apart in the source; their conditions may differ.
System: p53/Mdm2, p53/MdmX or Mdm2/MdmX complex
Assay: co-immunoprecipitation of p53/Mdm2/MdmX complexes in MCF7 cells
Type: cell-based, human
Details: 10 μg/ml, 6 hours
Description: MCF7 cells were seeded in a 10-cm dish overnight and treated for 6 hours with 10 μg/ml (28 μM) MEL23, 5.3 μg/ml (10 μM) Nutlin-3a or DMSO. […] The experimental conditions of the results shown in FIG. 33B were as follows: FLAG-Mdm2 was transfected into cells and after 24 hours, treated with compounds, and cell lysates were incubated with anti-FLAG M2 antibody for 2 hours, followed by incubation with Protein-A/G sepharose beads for an hour at 4° C. Beads were washed and proteins eluted with 5×SDS and separated on SDS-PAGE.

`CCCCn1c(=O)[nH]c(O)c(C2NCCc3c2[nH]c2ccccc32)c1=O` (stereo not shown) [MEL23] was tested, and the “complex formation (co-immunoprecipitation)” value was “did not inhibit p53-Mdm2 complex formation; also recorded: does not inhibit”.
